Results reported in PMC6209530 (Journal of the American Chemical Society, 2018).
Where two headings read alike, the source gives them in different places. Peptide text beside a SMILES is read from it. * marks the point of attachment. X1 = CCCCCCCCCCCCCCCC(=O)OCC(C*)OC(=O)CCCCCCCCCCCCCCC; Palmitoyl = CCCCCCCCCCCCCCCC(=O)*

How the values were obtained:
B16 mouse melanoma = assay: cell growth inhibition; format: cell-based; conditions: read-out: IC50, cell growth inhibition
mice = conditions: cited from earlier work; for adjuvant activity in mice: intramuscular (i.m.) injection with antigen (OVA)
[1] = system: HCT116 human colon cancer; assay: cell growth inhibition; format: cell-based; conditions: read-out: IC50, cell growth inhibition
human THP-1 cells = assay: cell growth inhibition; format: cell-based; conditions: read-out: IC50, cell growth inhibition
mouse macrophages [2] = assay: cell growth inhibition; format: cell-based; conditions: read-out: IC50, cell growth inhibition
mouse macrophages [3] = assay: stimulated release of TNF-α from mouse macrophages; format: cell-based; conditions: read-out: EC50, stimulated release of TNF-α
[4] = system: human foreskin (HFF) fibroblast cells; assay: cell growth inhibition; format: cell-based; conditions: read-out: IC50, cell growth inhibition
[5] = system: mouse (NIH/3T3) fibroblast cells; assay: cell growth inhibition; format: cell-based; conditions: read-out: IC50, cell growth inhibition
[6] = system: differentiated human THP-1 cells; format: cell-based
TLR1 and TLR2 = TLR1 and TLR2 (Mus musculus, UniProt Q9EPQ1+Q9QUN7); format: cell-based; conditions: 500 nM, macrophages from mutant or knockout mice
TLR1 and TLR2, sequence (Q9EPQ1 26-795): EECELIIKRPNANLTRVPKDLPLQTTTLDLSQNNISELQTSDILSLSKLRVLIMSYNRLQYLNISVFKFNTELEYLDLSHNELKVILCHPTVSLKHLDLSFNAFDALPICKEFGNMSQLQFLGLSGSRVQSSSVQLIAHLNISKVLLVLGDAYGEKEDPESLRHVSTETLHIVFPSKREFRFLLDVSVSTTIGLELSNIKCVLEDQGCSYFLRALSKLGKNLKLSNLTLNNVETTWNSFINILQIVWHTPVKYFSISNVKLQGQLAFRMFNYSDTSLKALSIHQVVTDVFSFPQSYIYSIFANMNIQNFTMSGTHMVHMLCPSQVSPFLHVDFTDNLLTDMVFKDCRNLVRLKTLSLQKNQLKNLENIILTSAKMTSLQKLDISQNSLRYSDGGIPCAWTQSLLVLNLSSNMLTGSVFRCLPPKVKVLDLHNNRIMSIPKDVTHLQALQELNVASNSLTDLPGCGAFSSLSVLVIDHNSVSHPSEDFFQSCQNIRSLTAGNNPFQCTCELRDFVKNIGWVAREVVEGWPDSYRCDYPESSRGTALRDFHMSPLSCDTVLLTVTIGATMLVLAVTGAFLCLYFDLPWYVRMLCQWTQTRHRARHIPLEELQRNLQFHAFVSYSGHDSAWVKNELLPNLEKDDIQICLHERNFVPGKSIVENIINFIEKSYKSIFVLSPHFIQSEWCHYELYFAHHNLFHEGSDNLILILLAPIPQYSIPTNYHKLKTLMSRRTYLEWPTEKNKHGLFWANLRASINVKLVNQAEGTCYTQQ
TLR1 and TLR2, sequence (Q9QUN7 25-784): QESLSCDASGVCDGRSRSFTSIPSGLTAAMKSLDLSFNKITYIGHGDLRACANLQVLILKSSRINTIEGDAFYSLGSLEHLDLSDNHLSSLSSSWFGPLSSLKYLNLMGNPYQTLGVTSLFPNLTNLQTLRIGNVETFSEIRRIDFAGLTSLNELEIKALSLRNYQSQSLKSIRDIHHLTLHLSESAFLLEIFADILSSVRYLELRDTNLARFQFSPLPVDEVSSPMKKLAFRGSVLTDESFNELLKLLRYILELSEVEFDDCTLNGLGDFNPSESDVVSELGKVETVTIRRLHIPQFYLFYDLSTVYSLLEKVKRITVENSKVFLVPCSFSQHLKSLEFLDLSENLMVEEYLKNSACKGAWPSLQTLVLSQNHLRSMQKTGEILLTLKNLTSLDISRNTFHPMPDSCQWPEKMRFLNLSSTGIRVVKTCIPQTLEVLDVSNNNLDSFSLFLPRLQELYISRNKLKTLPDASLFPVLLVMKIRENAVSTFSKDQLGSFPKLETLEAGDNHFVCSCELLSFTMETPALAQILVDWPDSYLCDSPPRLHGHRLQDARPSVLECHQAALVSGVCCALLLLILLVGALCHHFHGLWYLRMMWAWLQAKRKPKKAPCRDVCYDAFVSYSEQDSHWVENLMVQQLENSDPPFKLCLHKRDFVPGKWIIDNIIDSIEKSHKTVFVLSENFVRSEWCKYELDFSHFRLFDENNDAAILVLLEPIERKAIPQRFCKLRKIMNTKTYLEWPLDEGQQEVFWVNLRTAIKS

L1210 mouse leukemia = assay: cell growth inhibition; format: cell-based; conditions: read-out: IC50, cell growth inhibition
[7] = system: murine melanoma (B16-OVA); conditions: combination with anti-PD-L1, diprovocim/OVA i.m., cited from earlier work
[8] = system: IKKα, IKKβ, p38, JNK, and ERK; conditions: cited from earlier work
[9] = read-out: EC50, stimulated release of TNF-α, differentiated human THP-1 cells

## O=C(N[C@H]1C[C@@H]1c1ccccc1)[C@@H]1CN(C(=O)c2ccc(C(=O)N3C[C@@H](C(=O)N[C@H]4C[C@@H]4c4ccccc4)[C@H](C(=O)N[C@H]4C[C@@H]4c4ccccc4)C3)cc2)C[C@H]1C(=O)N[C@H]1C[C@@H]1c1ccccc1 [Compound 3]
B16 mouse melanoma
  IC50: > 10000 nM
mice; i.m. with OVA, TLR1 and TLR2 deficient mice
  adjuvant activity in TLR1 and TLR2 deficient mice: inactive
mice
  adjuvant activity in mice: active as an adjuvant
mice; listed as Diprovocim-1
  adjuvant activity in mice: acts as an adjuvant
[1]
  IC50: > 10000 nM
Human THP-1 cells
  IC50: > 10000 nM
Mouse macrophages [2]
  IC50: > 10000 nM
Mouse macrophages [3]
  EC50: 1.3 nM
[4]
  IC50: > 10000 nM
[5]
  IC50: > 10000 nM
[6]; direct side-by-side comparison, human THP-1 cells
  times more potent than Pam3CSK4: 5–10 times
[6]; human versus mouse cell release of TNF-α
  potency differential human THP-1 cells versus mouse macrophages: 10 fold
[6]; [9]
  EC50: 0.11 nM
TLR1 and TLR2
  dependence of activity on downstream signaling proteins: dependent on TLR1/TLR2 signaling through MyD88, TIRAP, and IRAK4
L1210 mouse leukemia
  IC50: > 10000 nM
[7]
  protection from tumor rechallenge: protected mice from tumor rechallenge
  survival of mice implanted with B16-OVA melanoma: cured or prolonged survival of mice
[7]; listed as diprovocim-1
  survival of mice implanted with B16-OVA melanoma: cured or prolonged the survival of mice
[8]
  phosphorylation and activation of IKKα, IKKβ, p38, JNK, and ERK: induce the phosphorylation and activation

## O=C(NCCc1ccc(F)cc1)[C@@H]1CN(C(=O)c2ccc(C(=O)N3C[C@@H](C(=O)NCCc4ccc(F)cc4)[C@H](C(=O)NCCc4ccc(F)cc4)C3)cc2)C[C@H]1C(=O)NCCc1ccc(F)cc1 [Compound 4]
[6]; human THP-1 cells
  fold more potent than the all racemate (69): 3 fold
[6]; [9]
  EC50: 50 nM

## O=C(NCCc1ccc(F)cc1)C1CN(C(=O)c2ccc(C(=O)N3CC(C(=O)NCCc4ccc(F)cc4)C(C(=O)NCCc4ccc(F)cc4)C3)cc2)CC1C(=O)NCCc1ccc(F)cc1 (centres unmarked) [Compound 69]
[6]; [9]
  EC50: 100 nM

## CCCCCCCCCCCCCCCC(=O)N[C@@H](CSCC(COC(=O)CCCCCCCCCCCCCCC)OC(=O)CCCCCCCCCCCCCCC)C(=O)N[C@@H](CO)C(=O)N[C@@H](CCCCN)C(=O)N[C@@H](CCCCN)C(=O)N[C@@H](CCCCN)C(=O)N[C@@H](CCCCN)C(=O)O (some centres unmarked) [Pam3CSK4, reference compound] (Palmitoyl-C(X1)SKKKK-OH; N-terminus and C-terminus assumed)
[6]
  EC50: 0.91 nM
